From patent publication US8163929B2, “Dihydropyridone amides as P2X7 modulators” (Roche Palo Alto LLC, priority 2008, dated 2012)

target: T1, P2X7 (UniProt Q99572); experiment: P2X7 activity of Table 1; type: cell-based; conditions: pIC50 values for P2X7
T1 sequence (Q99572 1-595): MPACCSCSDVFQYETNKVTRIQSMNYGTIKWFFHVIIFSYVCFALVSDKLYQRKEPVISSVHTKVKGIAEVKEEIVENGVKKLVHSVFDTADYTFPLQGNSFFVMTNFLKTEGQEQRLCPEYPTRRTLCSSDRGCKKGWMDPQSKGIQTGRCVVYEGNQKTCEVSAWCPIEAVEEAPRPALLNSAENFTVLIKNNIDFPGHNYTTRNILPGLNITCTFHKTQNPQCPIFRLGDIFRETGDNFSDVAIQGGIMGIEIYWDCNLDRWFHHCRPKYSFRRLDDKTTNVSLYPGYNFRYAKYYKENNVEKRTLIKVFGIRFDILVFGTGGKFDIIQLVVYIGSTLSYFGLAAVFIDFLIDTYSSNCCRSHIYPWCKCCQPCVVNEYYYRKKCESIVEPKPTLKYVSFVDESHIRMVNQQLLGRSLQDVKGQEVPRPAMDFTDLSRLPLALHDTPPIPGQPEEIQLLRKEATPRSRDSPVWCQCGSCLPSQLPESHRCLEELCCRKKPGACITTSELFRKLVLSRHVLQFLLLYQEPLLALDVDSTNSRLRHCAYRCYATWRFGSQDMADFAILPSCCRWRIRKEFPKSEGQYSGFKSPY
Summary of the method: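 FLIPR calcium flux with fluo-3 in 1321N1 cells expressing human P2X7 and HEK293 cells expressing rat P2X7, in HBSS with 2 mM CaCl2 and 2.5 mM probenecid. Antagonist pre-incubated 20 min at room temperature, then BzATP added (100 μM human, 5 μM rat). Peak response over 5 min normalised to 5 μM ionomycin.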

Row | Structure (SMILES) | pIC50
1 | Cc1ccc(-c2ccnn(CCO)c2=O)cc1NC(=O)C1=CN(C)C(=O)C[C@H]1c1ccc(F)cc1 [Compound 94, (S)-4-(4-Fluoro-phenyl)-1-methyl-6-oxo-1,4,5,6-tetrahydro-pyridine-3-carboxylic acid {5-[2-(2-hydroxy-ethyl)-3-oxo-2,3-dihydro-pyridazin-4-yl]-2-methyl-phenyl}-amide] | 7.8
2 | Cc1ccc(-c2cc(C)n(CCO)n2)cc1NC(=O)C1=CNC(=O)CC1c1cc(F)cc(F)c1 (centres unmarked) [Compound 95, 4-(3,5-Difluoro-phenyl)-6-oxo-1,4,5,6-tetrahydro-pyridine-3-carboxylic acid {5-[1-(2-hydroxy-ethyl)-5-methyl-1H-pyrazol-3-yl]-2-methyl-phenyl}-amide] | 7.85
3 | Cc1ccc(-c2ccc(C)c(NC(=O)C3=CNC(=O)C[C@H]3c3cccc(F)c3)c2)nn1 [Compound 96, (S)-4-(3-Fluoro-phenyl)-6-oxo-1,4,5,6-tetrahydro-pyridine-3-carboxylic acid [2-methyl-5-(6-methyl-pyridazin-3-yl)-phenyl]-amide] | 7.48
4 | Cc1ccc(-c2ncccn2)cc1NC(=O)C1=CNC(=O)C[C@H]1c1cccc(F)c1 [Compound 97, (S)-4-(3-Fluoro-phenyl)-6-oxo-1,4,5,6-tetrahydro-pyridine-3-carboxylic acid (2-methyl-5-pyrimidin-2-yl-phenyl)-amide] | 7.09
5 | Cc1ccc(-c2ccc(=O)n(C)n2)cc1NC(=O)C1=CNC(=O)C[C@H]1c1ccc(F)cc1 [Compound 98, (S)-4-(4-Fluoro-phenyl)-6-oxo-1,4,5,6-tetrahydro-pyridine-3-carboxylic acid [2-methyl-5-(1-methyl-6-oxo-1,6-dihydro-pyridazin-3-yl)-phenyl]-amide] | 6.52
6 | Cc1ccc(-c2ccc(=O)[nH]n2)cc1NC(=O)C1=CNC(=O)C[C@H]1c1ccc(F)cc1 [Compound 99, (S)-4-(4-Fluoro-phenyl)-6-oxo-1,4,5,6-tetrahydro-pyridine-3-carboxylic acid [2-methyl-5-(6-oxo-1,6-dihydro-pyridazin-3-yl)-phenyl]-amide] | 7.515
7 | Cc1ccc(-n2ncc(=O)n(CCO)c2=O)cc1NC(=O)C1=CN(C)C(=O)C[C@H]1c1ccc(F)cc1 [Compound 100, (S)-4-(4-Fluoro-phenyl)-1-methyl-6-oxo-1,4,5,6-tetrahydro-pyridine-3-carboxylic acid {5-[4-(2-hydroxy-ethyl)-3,5-dioxo-4,5-dihydro-3H-[1,2,4]triazin-2-yl]-2-methyl-phenyl}-amide] | 7.5
8 | Cc1ccc(-n2ncc(=O)n(CCO)c2=O)cc1NC(=O)C1=CN(C)C(=O)C[C@H]1c1cccc(F)c1 [Compound 101, (S)-4-(3-Fluoro-phenyl)-1-methyl-6-oxo-1,4,5,6-tetrahydro-pyridine-3-carboxylic acid {5-[4-(2-hydroxy-ethyl)-3,5-dioxo-4,5-dihydro-3H-[1,2,4]triazin-2-yl]-2-methyl-phenyl}-amide] | 7.57
9 | Cc1ccc(-c2cc(C(F)(F)F)[nH]n2)cc1NC(=O)C1=CNC(=O)C[C@H]1c1ccc(F)cc1 [Compound 102, (S)-4-(4-Fluoro-phenyl)-6-oxo-1,4,5,6-tetrahydro-pyridine-3-carboxylic acid [2-methyl-5-(5-trifluoromethyl-1H-pyrazol-3-yl)-phenyl]-amide] | 5.77
10 | COC[C@@H](O)Cn1nc(-c2ccc(C)c(NC(=O)C3=CN(C)C(=O)C[C@H]3c3cccc(F)c3)c2)cc1C [Compound 103, (S)-4-(3-Fluoro-phenyl)-1-methyl-6-oxo-1,4,5,6-tetrahydro-pyridine-3-carboxylic acid {5-[1-((S)-2-hydroxy-3-methoxy-propyl)-5-methyl-1H-pyrazol-3-yl]-2-methyl-phenyl}-amide] | 7.1
11 | COC[C@H](O)Cn1nccc(-c2ccc(C)c(NC(=O)C3=CN(C)C(=O)C[C@H]3c3cccc(F)c3)c2)c1=O [Compound 104, (S)-4-(3-Fluoro-phenyl)-1-methyl-6-oxo-1,4,5,6-tetrahydro-pyridine-3-carboxylic acid {5-[2-((R)-2-hydroxy-3-methoxy-propyl)-3-oxo-2,3-dihydro-pyridazin-4-yl]-2-methyl-phenyl}-amide] | 7.8
12 | COC[C@H](O)Cn1nccc(-c2ccc(C)c(NC(=O)C3=CN(C)C(=O)C[C@H]3c3ccc(F)cc3)c2)c1=O [Compound 105, (S)-4-(4-Fluoro-phenyl)-1-methyl-6-oxo-1,4,5,6-tetrahydro-pyridine-3-carboxylic acid {5-[2-((R)-2-hydroxy-3-methoxy-propyl)-3-oxo-2,3-dihydro-pyridazin-4-yl]-2-methyl-phenyl}-amide] | 7.57
13 | COC[C@H](O)Cn1nccc(-c2ccc(C)c(NC(=O)C3=CNC(=O)C[C@H]3c3ccc(F)cc3)c2)c1=O [Compound 106, (S)-4-(4-Fluoro-phenyl)-6-oxo-1,4,5,6-tetrahydro-pyridine-3-carboxylic acid {5-[2-((R)-2-hydroxy-3-methoxy-propyl)-3-oxo-2,3-dihydro-pyridazin-4-yl]-2-methyl-phenyl}-amide] | 7.885
14 | Cc1ccc(-n2ncc(=O)[nH]c2=O)cc1NC(=O)C1=CN(C)C(=O)C[C@H]1c1ccc(F)cc1 [Compound 107, (S)-4-(4-Fluoro-phenyl)-1-methyl-6-oxo-1,4,5,6-tetrahydro-pyridine-3-carboxylic acid [5-(3,5-dioxo-4,5-dihydro-3H-[1,2,4]triazin-2-yl)-2-methyl-phenyl]-amide] | 6.81

Continued, values first:

Row | pIC50 | Structure (SMILES)
15 | 7.145 | Cc1ccc(-n2ncc(=O)[nH]c2=O)cc1NC(=O)C1=CN(C)C(=O)C[C@H]1c1cccc(F)c1 [Compound 108, (S)-4-(3-Fluoro-phenyl)-1-methyl-6-oxo-1,4,5,6-tetrahydro-pyridine-3-carboxylic acid [5-(3,5-dioxo-4,5-dihydro-3H-[1,2,4]triazin-2-yl)-2-methyl-phenyl]-amide]
16 | 8.045 | Cc1ccc(-c2ccnn(C)c2=O)cc1NC(=O)C1=CNC(=O)C[C@H]1c1cccc(F)c1 [Compound 109, (S)-4-(3-Fluoro-phenyl)-6-oxo-1,4,5,6-tetrahydro-pyridine-3-carboxylic acid [2-methyl-5-(2-methyl-3-oxo-2,3-dihydro-pyridazin-4-yl)-phenyl]-amide]
17 | 7.17 | Cc1ccc(-n2ncccc2=O)cc1NC(=O)C1=CN(C)C(=O)C[C@H]1c1ccc(F)cc1 [Compound 110, (S)-4-(4-Fluoro-phenyl)-1-methyl-6-oxo-1,4,5,6-tetrahydro-pyridine-3-carboxylic acid [2-methyl-5-(6-oxo-6H-pyridazin-1-yl)-phenyl]-amide]
18 | 6.895 | Cc1ccc(-c2cc(C(F)(F)F)n(CCO)n2)cc1NC(=O)C1=CN(C)C(=O)C[C@H]1c1cccc(F)c1 [Compound 111, (S)-4-(3-Fluoro-phenyl)-1-methyl-6-oxo-1,4,5,6-tetrahydro-pyridine-3-carboxylic acid {5-[1-(2-hydroxy-ethyl)-5-trifluoromethyl-1H-pyrazol-3-yl]-2-methyl-phenyl}-amide]
19 | 7.645 | Cc1ccc(-c2ccn(CCO)n2)cc1NC(=O)C1=CN(C)C(=O)C[C@H]1c1cccc(F)c1 [Compound 112, (S)-4-(3-Fluoro-phenyl)-1-methyl-6-oxo-1,4,5,6-tetrahydro-pyridine-3-carboxylic acid {5-[1-(2-hydroxy-ethyl)-1H-pyrazol-3-yl]-2-methyl-phenyl}-amide]
20 | 7.04 | Cc1cc(-c2ccc(Cl)c(NC(=O)C3=CN(C)C(=O)C[C@H]3c3ccc(F)cc3)c2)nn1CCO [Compound 115, (S)-4-(4-Fluoro-phenyl)-1-methyl-6-oxo-1,4,5,6-tetrahydro-pyridine-3-carboxylic acid {2-chloro-5-[1-(2-hydroxy-ethyl)-5-methyl-1H-pyrazol-3-yl]-phenyl}-amide]
21 | 7.565 | Cc1ccc(-c2ccc[nH]c2=O)cc1NC(=O)C1=CN(C)C(=O)C[C@H]1c1ccc(F)cc1 [Compound 116, (S)-4-(4-Fluoro-phenyl)-1-methyl-6-oxo-1,4,5,6-tetrahydro-pyridine-3-carboxylic acid [2-methyl-5-(2-oxo-1,2-dihydro-pyridin-3-yl)-phenyl]-amide]
22 | 7.22 | COc1ccc(-c2ccc(C)c(NC(=O)C3=CN(C)C(=O)C[C@H]3c3ccc(F)cc3)c2)nn1 [Compound 117, (S)-4-(4-Fluoro-phenyl)-1-methyl-6-oxo-1,4,5,6-tetrahydro-pyridine-3-carboxylic acid [5-(6-methoxy-pyridazin-3-yl)-2-methyl-phenyl]-amide]
23 | 6.585 | Cc1ccc(-c2ccc(=O)[nH]n2)cc1NC(=O)C1=CN(C)C(=O)C[C@H]1c1ccc(F)cc1 [Compound 118, (S)-4-(4-Fluoro-phenyl)-1-methyl-6-oxo-1,4,5,6-tetrahydro-pyridine-3-carboxylic acid [2-methyl-5-(6-oxo-1,6-dihydro-pyridazin-3-yl)-phenyl]-amide]
